From US10869931B2, “Polyethylene glycol-modified angiogenesis inhibitor HM-1 and application thereof” (NANJING ANJI BIOLOGICAL TECHNOLOGY CO.,LTD, priority 2016, dated 2020)
Marks after values point to notes of the source that are not given here. Where no end group is shown, it is not given here.

Key:
[1] = in vivo
[2] = system: Cervical cancer tumor cells; test: MTT proliferation inhibition, cervical cancer cells; type: cell-based, human; set-up: concentration or dose not given beside the values; conditions: 48 h
In short: (§1)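 Tumour cells plated at 2×10^4 cells/mL, attached overnight, then exposed to dilutions of mPEG-HM-1 for 48 h at 37 °C, 5% CO2. MTT added 4 h, formazan dissolved in DMSO, absorbance 570/630 nm; growth inhibition = 1 − treated/untreated, three independent repeats, mean±SD.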

[3] = system: IL-1β production by mouse peritoneal macrophages; test: IL-1β production by mouse peritoneal macrophages (ELISA); type: cell-based; conditions: 48 h
In short: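 Starch-elicited mouse peritoneal macrophages (2×10^6 cells/mL), adhered 3 h, treated with low, medium and high concentrations of mPEG-HM-1 for 48 h; dexamethasone as positive control. Supernatant IL-1β quantified by sandwich ELISA at OD450.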

[4] = system: Human Umbilical Vein Endothelial Cells (HUVEC); test: Transwell migration of HUVEC; type: cell-based; conditions: 24 h
In short: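 HUVEC (1×10^5/mL in blank medium) seeded with test solutions into Matrigel-coated transwell inserts, lower chamber holding medium with 5% FBS and 1% ECGS, 24 h at 37 °C. Migrated cells crystal-violet stained and counted in four fields; migration inhibition calculated from test versus blank-control counts, three independent repeats.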

Melanoma tumor cells = test: MTT proliferation inhibition, melanoma cells; type: cell-based, human; set-up: concentration or dose not given beside the values; conditions: 48 h
In short: as §1

Lung cancer tumor cells = test: MTT proliferation inhibition, lung cancer cells; type: cell-based, human; set-up: concentration or dose not given beside the values; conditions: 48 h
In short: as §1

Substance	AUC0-∞ [1] [mg/L/h]	CL [1] [L/h/kg]	MRT0-∞ [1] [h]	T1/2β (half-life) [1] [h]	rate of growth inhibition [2] [%]	IL-1β ([3]; 10 μg/mL) [pg/mL]	Inhibition Rate of IL-1β production ([3]; 10 μg/mL) [%]	IL-1β ([3]; 20 μg/mL) [pg/mL]	Inhibition Rate of IL-1β production ([3]; 20 μg/mL) [%]	cell migration number (Mean ± SD) ([4]; 50 μg/mL)	inhibition rate of HUVEC migration ([4]; 50 μg/mL)	cell migration number (Mean ± SD) ([4]; 60 μg/mL)	inhibition rate of HUVEC migration ([4]; 60 μg/mL)	rate of growth inhibition (Melanoma tumor cells) [%]	rate of growth inhibition (Lung cancer tumor cells) [%]	IL-1β ([3]; 40 μg/mL) [pg/mL]	cell migration number (Mean ± SD) ([4]; 90 μg/mL)	inhibition rate of HUVEC migration ([4]; 90 μg/mL)	cell migration number (Mean ± SD) ([4]; 100 μg/mL)	inhibition rate of HUVEC migration ([4]; 100 μg/mL)	other results
mPEG-bALD5k-Arg-Gly-Ala-Asp-Arg-Ala-Gly-Gly-Gly-Gly-Arg-Gly-Asp ({mPEG‑bALD 5 kDa}-RGADRAGGGGRGD) [mPEG-bALD5k-HM-1]	4782.29 ± 11.37	0.0498 ± 0.0097	8.46 ± 6.95	9.35 ± 0.12	64.52 ± 16.88	659.63 ± 16.52	28.47	533.11 ± 10.87	42.19	489.28 ± 46.98	55.20%	577.96 ± 58.76	47.08%*	65.62 ± 20.35	47.56 ± 12.22						IL-1β ([3]; 5 μg/mL): 729.25 ± 18.34 pg/mL; Inhibition Rate of IL-1β production ([3]; 5 μg/mL): 20.92%; cell migration number (Mean ± SD) ([4]; 30 μg/mL): 654.96 ± 52.07; inhibition rate of HUVEC migration ([4]; 30 μg/mL): 40.03%*; cell migration number (Mean ± SD) ([4]; 40 μg/mL): 545.96 ± 45.32; inhibition rate of HUVEC migration ([4]; 40 μg/mL): 50.01%
mPEG-bALD10k-Arg-Gly-Ala-Asp-Arg-Ala-Gly-Gly-Gly-Gly-Arg-Gly-Asp ({mPEG‑bALD 10 kDa}-RGADRAGGGGRGD) [mPEG-bALD10k-HM-1]	5108.42 ± 9.98	0.0250 ± 0.0105	11.97 ± 8.86	16.83 ± 0.13	80.08 ± 18.34	720.77 ± 16.65	21.84	633.90 ± 14.73	31.26	589.97 ± 56.24	45.98%*	483.16 ± 50.26	55.76%	82.33 ± 20.08	66.72 ± 14.42	460.53 ± 10.42	504.35 ± 48.36	53.82%**	568.57 ± 56.90	47.94%*	inhibition rate of HUVEC migration ([4]; 70 μg/mL): 60.38%**
mPEG-bALD20k-Arg-Gly-Ala-Asp-Arg-Ala-Gly-Gly-Gly-Gly-Arg-Gly-Asp ({mPEG‑bALD 20 kDa}-RGADRAGGGGRGD) [mPEG-bALD20k-HM-1]	5872.56 ± 8.72	0.0127 ± 0.0093	18.32 ± 2.99	22.94 ± 0.24	78.57 ± 20.11			738.66 ± 12.81	19.90					80.75 ± 22.94	65.31 ± 15.54	640.26 ± 14.28		53.82%			Inhibition Rate of IL-1β production ([3]; 40 μg/mL): 30.57%; IL-1β ([3]; 80 μg/mL): 487.37 ± 12.06 pg/mL; Inhibition Rate of IL-1β production ([3]; 80 μg/mL): 47.15%; inhibition rate of HUVEC migration ([4]; 80 μg/mL): 55.68%
mPEG-bALD40k-Arg-Gly-Ala-Asp-Arg-Ala-Gly-Gly-Gly-Gly-Arg-Gly-Asp ({mPEG‑bALD 40 kDa}-RGADRAGGGGRGD) [mPEG-bALD40k-HM-1]	5065.72 ± 9.56	0.0066 ± 0.0066	16.75 ± 3.29	43.88 ± 0.20	70.34 ± 19.04									73.10 ± 20.55	56.47 ± 14.15	740.78 ± 16.79	652.01 ± 52.63	40.30%*	523.03 ± 60.52	52.11%	Inhibition Rate of IL-1β production ([3]; 40 μg/mL): 19.67%; IL-1β ([3]; 80 μg/mL): 648.10 ± 14.55 pg/mL; Inhibition Rate of IL-1β production ([3]; 80 μg/mL): 29.72%; IL-1β ([3]; 160 μg/mL): 518.91 ± 12.90 pg/mL; Inhibition Rate of IL-1β production ([3]; 160 μg/mL): 43.73%; cell migration number (Mean ± SD) ([4]; 110 μg/mL): 545.63 ± 46.84; inhibition rate of HUVEC migration ([4]; 110 μg/mL): 50.04%; cell migration number (Mean ± SD) ([4]; 120 μg/mL): 596.64 ± 50.46; inhibition rate of HUVEC migration ([4]; 120 μg/mL): 45.37%*
